Data taken from patent publication US6627647B1, “Substituted 1-(4-aminophenyl)imidazoles and their use as anti-inflammatory agents” (Boehringer Ingelheim Pharmaceuticals, Inc., priority 2000, dated 2003).

Tested on: IL-2 promoter/enhancer
Experiment: IL-2 promoter assay (luciferase reporter in J.1F/C6 Jurkat cells)
Assay type: cell-based
Settings: Homo sapiens; J.1F/C6 Jurkat cell line, induction with ionomycin and PMA; read-out: IC50, inhibition of luciferase activity in IL-2 promoter assay
From the text: The IL-2 promoter assay measures transcriptional activation of a luciferase reporter gene which has been placed under control of the IL-2 promoter/enhancer. All the known regulatory features of the IL-2 gene are contained within a ˜300 bp sequence immediately upstream of the open reading frame. The region −328 to +35 relative to the transcription start site of the IL-2 gene is obtained by […] of human genomic DNA and is subcloned into the promoterless luciferase reporter vector pGL2-Basic (Promega). The resulting construct, pIL2P-luc, and a vector containing a neomycin resistance gene, pcDNA/Neo (Invitrogen), are linearized and stably transfected into Jurkat cells (a human T-cell line) by electroporation.
For screening compounds, the cells are pelleted by centrifugation, washed once with PBS, resuspended in RPMI (phenol red-free) containing 5% FBS, and dispensed into 96-well, white microtiter plates (Packard) at 50,000 cells/well. The cells are pre-incubated with compounds (1 μg/ml) for 15 min prior to addition of ionomycin (1 μg/ml) and PMA (10 ng/ml) in a final volume of 100 μl. Following a 5 hr incubation at 37° C. in a humidified incubator, 100 μl of Luc-Lite lysis buffer/luciferase assay buffer (Promega) is added and luminescence measured using a Packard TopCount scintillation counter/luminometer.

C=CC[C@@H]1/C=C(\C)C[C@H](C)C[C@H](OC)[C@H]2O[C@@](O)(C(=O)C(=O)N3CCCC[C@H]3C(=O)O[C@H](/C(C)=C/[C@@H]3CC[C@@H](O)[C@H](OC)C3)[C@H](C)[C@@H](O)CC1=O)[C@H](C)C[C@@H]2OC [FK506]
IC50: 0.3 nM
